Test system: TSE-induced lung injury (TSE-LI)
Test: chronic tobacco smoke exposure induced lung injury (TSE-LI) in wild-type mice
Type: in vivo
Method: Recombinant full-length U5a protein (U5a^FL), extracellular domain of U5a^FL (U5a^ECD) and U5a^ECD-specific monoclonal antibody (U5a^mAb, the 17C9 1 anti-U5a antibody comprising the sequences of SEQ ID NOs. 204 and 211) mitigated chronic TS exposure (TSE) induced lung injury (TSE-LI) in wild-type (WT) mice. WT mice were kept in ambient AIR or exposed to tobacco smoke (TSE) for 4 h/day 5 days a week. After 16 weeks, WT mice with TSE-LI were left untreated (None) or treated with 2.5 mg/kg of U5a^FL, U5a^ECD and U5amAb 5 days a week for 4 weeks by IP injection. Total lung RNA were analyzed for MUC5AC (M5Ac) (FIG. 12A), FOXA2 (FIG. 12B) and surfactant protein-C(SP-C) (FIG. 12C) mRNA by qPCR. Lung sections of mice treated as in FIG. 12A were subjected to IHC analysis for M5Ac (FIG. 12D). We found increased expression of U5a in AECs and ATII cells in lungs of patients with COPD and mice with TSE-LI. […] In addition, increased surfactant protein-C(SP-C) indicates improved survival of ATII cells, which is otherwise reduced due to increased TSE-induced senescence and apoptosis of ATII cells seen in mice with TSE-LI left untreated.

With “U5a^ECD: extracellular domain of U5a^FL; ECD of UNC5A given as SEQ ID NO: 103” the “MUC5AC (M5Ac) expression (lung mRNA by qPCR, IHC)” value (WT mice with TSE-LI, 2.5 mg/kg IP 5 days a week for 4 weeks, FIG. 12A, 12D) was “significantly inhibits”, the “FOXA2 mRNA (qPCR)” value (WT mice with TSE-LI, 2.5 mg/kg IP 5 days a week for 4 weeks, FIG. 12B) was “inducing” and the “surfactant protein-C (SP-C) mRNA (qPCR)” value (WT mice with TSE-LI, 2.5 mg/kg IP 5 days a week for 4 weeks, FIG. 12C) was “increased”. The “chronic TS exposure (TSE) induced lung injury (TSE-LI)” value (WT mice, 2.5 mg/kg IP 5 days a week for 4 weeks after 16 weeks TSE) was “mitigated”.
